In this experiment the target is DNA-dependent protein kinase catalytic subunit (Homo sapiens, UniProt P78527). Description: Inhibition of DNA-dependent protein kinase (DNA-PK) of HeLa cell nuclear cell extract. In kind it is cell-free.

A value given as a limit tells only on which side of the number the result lay.

Chain of DNA-dependent protein kinase catalytic subunit (P78527 whole entry): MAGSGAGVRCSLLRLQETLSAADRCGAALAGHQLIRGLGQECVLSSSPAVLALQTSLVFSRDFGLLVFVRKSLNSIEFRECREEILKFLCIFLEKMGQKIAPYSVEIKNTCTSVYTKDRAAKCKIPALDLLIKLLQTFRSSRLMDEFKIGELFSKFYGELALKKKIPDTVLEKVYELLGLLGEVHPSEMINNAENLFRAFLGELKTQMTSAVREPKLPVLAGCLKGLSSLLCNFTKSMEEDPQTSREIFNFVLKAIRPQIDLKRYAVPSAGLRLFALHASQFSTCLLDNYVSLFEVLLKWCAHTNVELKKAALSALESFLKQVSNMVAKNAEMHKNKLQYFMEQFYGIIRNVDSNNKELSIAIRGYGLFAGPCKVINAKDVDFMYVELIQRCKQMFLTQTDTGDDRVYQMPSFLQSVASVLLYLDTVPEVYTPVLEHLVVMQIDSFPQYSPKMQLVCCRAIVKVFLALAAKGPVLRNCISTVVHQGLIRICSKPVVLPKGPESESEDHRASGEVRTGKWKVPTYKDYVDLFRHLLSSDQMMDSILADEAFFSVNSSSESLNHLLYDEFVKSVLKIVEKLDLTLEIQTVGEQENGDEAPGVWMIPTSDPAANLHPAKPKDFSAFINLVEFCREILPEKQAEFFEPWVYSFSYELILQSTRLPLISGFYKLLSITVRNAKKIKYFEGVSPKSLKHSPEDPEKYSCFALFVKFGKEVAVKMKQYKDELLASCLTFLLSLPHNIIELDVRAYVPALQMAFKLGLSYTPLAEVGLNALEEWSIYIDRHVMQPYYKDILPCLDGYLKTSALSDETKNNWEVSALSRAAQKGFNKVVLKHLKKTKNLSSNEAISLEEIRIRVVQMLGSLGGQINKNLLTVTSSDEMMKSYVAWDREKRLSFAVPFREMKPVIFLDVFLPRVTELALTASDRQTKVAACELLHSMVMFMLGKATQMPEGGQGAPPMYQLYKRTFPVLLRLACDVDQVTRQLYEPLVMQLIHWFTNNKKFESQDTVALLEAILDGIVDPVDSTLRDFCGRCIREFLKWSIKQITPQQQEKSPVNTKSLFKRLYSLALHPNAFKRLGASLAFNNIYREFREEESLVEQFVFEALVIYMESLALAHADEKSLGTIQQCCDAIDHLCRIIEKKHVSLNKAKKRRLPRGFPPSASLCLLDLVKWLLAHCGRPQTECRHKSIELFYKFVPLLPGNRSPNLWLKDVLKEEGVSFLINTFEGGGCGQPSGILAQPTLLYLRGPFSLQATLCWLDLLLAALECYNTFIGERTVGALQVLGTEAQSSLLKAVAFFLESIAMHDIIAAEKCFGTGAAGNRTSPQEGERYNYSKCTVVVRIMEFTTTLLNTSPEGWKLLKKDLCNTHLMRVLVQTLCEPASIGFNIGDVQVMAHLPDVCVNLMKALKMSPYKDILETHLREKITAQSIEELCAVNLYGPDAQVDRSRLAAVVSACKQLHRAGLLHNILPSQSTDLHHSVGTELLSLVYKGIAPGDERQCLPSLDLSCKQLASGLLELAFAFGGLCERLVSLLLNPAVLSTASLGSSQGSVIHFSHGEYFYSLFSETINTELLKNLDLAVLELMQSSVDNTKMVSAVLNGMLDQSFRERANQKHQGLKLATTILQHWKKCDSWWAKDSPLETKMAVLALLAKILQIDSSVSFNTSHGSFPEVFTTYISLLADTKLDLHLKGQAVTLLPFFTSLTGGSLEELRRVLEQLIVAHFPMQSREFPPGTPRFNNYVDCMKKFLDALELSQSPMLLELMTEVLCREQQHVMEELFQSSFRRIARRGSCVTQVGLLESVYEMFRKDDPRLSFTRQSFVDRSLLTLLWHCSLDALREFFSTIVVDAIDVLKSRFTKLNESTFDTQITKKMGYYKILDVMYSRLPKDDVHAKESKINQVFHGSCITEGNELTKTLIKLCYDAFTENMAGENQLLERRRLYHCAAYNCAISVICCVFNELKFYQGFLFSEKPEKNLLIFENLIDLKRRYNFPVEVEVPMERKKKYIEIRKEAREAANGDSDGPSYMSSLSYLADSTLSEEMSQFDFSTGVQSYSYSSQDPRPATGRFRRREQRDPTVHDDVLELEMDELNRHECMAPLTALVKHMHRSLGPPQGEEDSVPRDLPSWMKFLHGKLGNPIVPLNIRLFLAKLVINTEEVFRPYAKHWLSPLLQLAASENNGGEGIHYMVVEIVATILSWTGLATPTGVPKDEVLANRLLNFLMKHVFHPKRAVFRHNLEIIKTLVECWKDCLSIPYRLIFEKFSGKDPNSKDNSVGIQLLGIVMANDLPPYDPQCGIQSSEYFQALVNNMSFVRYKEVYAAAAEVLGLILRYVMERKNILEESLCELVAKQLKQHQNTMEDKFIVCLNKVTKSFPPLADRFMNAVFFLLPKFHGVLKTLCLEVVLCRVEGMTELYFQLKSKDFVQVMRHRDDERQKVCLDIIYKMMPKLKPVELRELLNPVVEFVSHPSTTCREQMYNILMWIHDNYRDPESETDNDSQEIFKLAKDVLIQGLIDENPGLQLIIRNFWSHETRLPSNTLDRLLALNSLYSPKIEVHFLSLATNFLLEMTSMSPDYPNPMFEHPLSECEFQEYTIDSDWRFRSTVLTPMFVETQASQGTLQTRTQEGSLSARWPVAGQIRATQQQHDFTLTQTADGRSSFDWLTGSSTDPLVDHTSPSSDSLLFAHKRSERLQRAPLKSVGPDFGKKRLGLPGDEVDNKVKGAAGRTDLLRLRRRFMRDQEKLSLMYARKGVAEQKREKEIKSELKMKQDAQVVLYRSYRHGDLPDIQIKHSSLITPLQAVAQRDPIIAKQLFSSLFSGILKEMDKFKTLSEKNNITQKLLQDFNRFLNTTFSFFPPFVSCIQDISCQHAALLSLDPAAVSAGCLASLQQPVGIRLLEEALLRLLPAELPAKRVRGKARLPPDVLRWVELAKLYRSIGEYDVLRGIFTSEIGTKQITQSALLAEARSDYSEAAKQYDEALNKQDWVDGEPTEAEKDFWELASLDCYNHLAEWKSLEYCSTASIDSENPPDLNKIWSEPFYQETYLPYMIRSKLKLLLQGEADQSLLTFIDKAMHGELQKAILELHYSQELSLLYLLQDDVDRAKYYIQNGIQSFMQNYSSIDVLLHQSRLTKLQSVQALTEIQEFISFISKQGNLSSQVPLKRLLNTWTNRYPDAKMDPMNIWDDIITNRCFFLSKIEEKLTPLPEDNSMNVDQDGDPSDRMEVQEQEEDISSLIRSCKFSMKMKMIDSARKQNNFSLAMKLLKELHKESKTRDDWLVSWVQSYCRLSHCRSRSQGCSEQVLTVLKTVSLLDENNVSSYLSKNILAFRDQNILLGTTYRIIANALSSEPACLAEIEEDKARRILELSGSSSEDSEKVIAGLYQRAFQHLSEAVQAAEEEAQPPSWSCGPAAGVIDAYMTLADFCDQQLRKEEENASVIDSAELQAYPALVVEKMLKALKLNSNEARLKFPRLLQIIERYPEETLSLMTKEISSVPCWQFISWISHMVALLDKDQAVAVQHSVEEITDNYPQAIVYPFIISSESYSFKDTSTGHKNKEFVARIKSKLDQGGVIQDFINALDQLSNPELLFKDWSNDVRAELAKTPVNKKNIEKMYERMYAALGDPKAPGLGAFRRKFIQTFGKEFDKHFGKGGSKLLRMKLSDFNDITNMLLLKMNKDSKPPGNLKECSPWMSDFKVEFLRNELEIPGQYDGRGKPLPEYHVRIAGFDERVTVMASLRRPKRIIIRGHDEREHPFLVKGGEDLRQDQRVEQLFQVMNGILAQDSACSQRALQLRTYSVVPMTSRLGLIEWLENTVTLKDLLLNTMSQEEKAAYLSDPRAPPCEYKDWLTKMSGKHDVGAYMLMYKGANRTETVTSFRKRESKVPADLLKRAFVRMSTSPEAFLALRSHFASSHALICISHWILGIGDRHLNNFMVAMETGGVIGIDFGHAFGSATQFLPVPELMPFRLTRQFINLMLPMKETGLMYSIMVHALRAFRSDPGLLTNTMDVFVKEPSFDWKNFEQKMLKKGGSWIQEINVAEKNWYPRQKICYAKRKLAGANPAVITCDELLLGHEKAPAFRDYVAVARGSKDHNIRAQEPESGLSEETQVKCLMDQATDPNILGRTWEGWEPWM

`N#Cc1cc(-c2ccncc2)c(/C=N/N)nc1O` came in with an IC50 of 100 µM.

Consider `N#Cc1cc(-c2ccncc2)c(CO)nc1O`, for which the IC50 is over 500 µM.

Consider `COc1ccc(COCc2nc(O)c(C#N)cc2-c2ccncc2)cc1`, for which the IC50 is over 500 µM.

Regarding `O=c1cc(N2CCOCC2)oc2c(-c3ccccc3)cccc12` [LY-294002], 1.4 µM corresponded to half-maximal inhibition (IC50).

(Values after ChEMBL document CHEMBL1133828, “Synthesis, crystal structure determination, and biological properties of the DNA-dependent protein kinase (DNA-PK) inhibitor 3-cyano-6-hydrazonomethyl-5-(4-pyridyl)pyrid-[1H]-2-one (OK-1035)” (Bioorg Med Chem Lett, 2001).)
